# Reference: publication PMC12521730, “Quantitative dual-isotope preclinical SPECT/CT imaging and biodistribution of the mercury-197m/g theranostic pair with [^197m/gHg]HgCl2 and a [^197m/gHg]Hg-tetrathiol complex as a platform for radiopharmaceutical development” (EJNMMI Radiopharmacy and Chemistry, 2025)
# Test: Ex vivo biodistribution (gamma counter)
# Type: in vivo, healthy male C57BL/6 mice
# Details: Hg-197g, 2 h post administration
# Experimental: For animal injection, the tracer was prepared at high molar activity. Radiolabeling of H4Tetrathiol (10^–2 M in DMSO; 40 μL for imaging, 20 μL for bioD) (or DMSO, for [^197m/gHg]HgCl2 mice) with [^197m/gHg]HgCl2 (imaging: 26.7 MBq total m + g, 62 μL; bioD: 13.04 MBq total m + g, 31 μL) was performed in a mixture of ammonium acetate buffer (1 M; pH 7; 198 μL for imaging or 149 μL for bioD) and 6 M NaOH (72 μL or 38 μL required to achieve a pH of 7.5 after addition of activity, for imaging or BioD labeling, respectively). The reaction was allowed to stand for 1 h at 37 °C and quantitative (> 99%) non-isolated percentage radiochemical yield (%RCY) was confirmed via the iTLC methods mentioned above. Further, 100 µL of the reaction was diluted with 50 µL of PBS Tween-20 (0.01 M sodium phosphate, 0.15 M NaCl, 0.05% Tween-20) for imaging mice, or 50 µL of the reaction was diluted with 100 µL of PBS Tween-20 for BioD mice. The tracers were prepared immediately before injection to avoid radiolysis and minimize the tracer loss to any surfaces due to its lipophilicity. The injected doses of each isomer, ^197mHg and ^197gHg, were quantified by measuring an aliquot of known volume of each tracer preparation via HPGe gamma spectroscopy and decay corrected for time of injection using the Eqs. (1) and (2).
# The study was conducted in compliance with the guidelines set by the Canadian Council on Animal Care (CCAC) and approved by the Animal Care Committee (ACC) at the University of British Columbia (A20-0132). A total of eight healthy male C57BL/6 mice weighing approximately 30 g for group 1 and 25 g for group 2 were used in the study. The mice were divided into two experimental groups: group 1 (n = 4) received free [^197m/gHg]HgCl2, while group 2 (n = 4) received [^197m/gHg]Hg-Tetrathiol. Within each group, one mouse was allocated for imaging, while the rest were designated for ex vivo biodistribution analysis. For SPECT imaging, the designated mice were anesthetized using isoflurane via a precision vaporizer. […] Once anesthetized, each imaging mouse received an intravenous (IV) injection via the lateral tail vein of 150 μL of [^197m/gHg]HgCl2 (0.492 MBq ^197mHg + 3.171 MBq ^197gHg) or [^197m/gHg]Hg-Tetrathiol (0.899 MBq ^197mHg + 4.230 MBq ^197gHg) in PBS Tween-20 (0.01 M Na Phosphate, 0.15 M NaCl, 0.05% Tween-20).
# Mice received an IV injection of [^197m/gHg]HgCl2 (0.275 MBq ^197mHg + 1.758 MBq ^197gHg, 150 μL) or [^197m/gHg]Hg-Tetrathiol (0.384 MBq ^197mHg + 1.733 MBq ^197gHg, 150 μL) (n = 3 per group) via the lateral tail vein using a Tailveiner restrainer. After the injection, the mice were returned to their experimental cages and allowed unrestricted movement. Biodistribution studies were conducted 2 h after administration. Mice were humanely euthanized with an overdose of isoflurane followed by cardiac puncture to collect blood pool activity. The organs of interest were fully extracted, cleaned of blood without rinsing, weighed, and analysed for radioactivity using a calibrated gamma counter with the 55–93 keV energy window for ^197gHg and the 110–160 keV energy window for ^197mHg (Packard Cobra II, Perkin Elmer, Waltham, MA, USA). The stomach and intestines were carefully cleaned prior to analysis to remove residual contents. For tissues and fluids that could not be fully removed (muscle, blood and bone) activity values were extrapolated based on standardised organ weights for age- and sex-matched mice tables to ensure accurate normalization (Davies and Morris [1993]; Foster et al. [2014]). The stomach and whole intestines were cleaned before analysis. The radioactivity measurements were decay corrected for time of injection using the Eqs. (1) and (2). The results are reported as the percentage of the injected activity per gram of tissue (%IA/g) and percentage of the injected activity per tissue (%IA/organ).
compound,measurement,value
O=C(CC[S-])OCC(COC(=O)CC[S-])(COC(=O)CC[S-])COC(=O)CC[S-].[Hg+2] [[^197m/gHg]Hg-Tetrathiol],Animal 1 (%IA/Organ): bladder,0.00 %IA/Organ
same,Animal 1 (%IA/Organ): blood,0.13 %IA/Organ
same,Animal 1 (%IA/Organ): bone,3.25 %IA/Organ
same,Animal 1 (%IA/Organ): brain,0.01 %IA/Organ
same,Animal 1 (%IA/Organ): feces,0.00 %IA/Organ
same,Animal 1 (%IA/Organ): heart,0.07 %IA/Organ
same,Animal 1 (%IA/Organ): kidneys,1.54 %IA/Organ
same,Animal 1 (%IA/Organ): large intestine,0.02 %IA/Organ
same,Animal 1 (%IA/Organ): liver,110.52 %IA/Organ
same,Animal 1 (%IA/Organ): lungs,0.95 %IA/Organ
same,Animal 1 (%IA/Organ): muscle,0.14 %IA/Organ
same,Animal 1 (%IA/Organ): pancreas,0.01 %IA/Organ
same,Animal 1 (%IA/Organ): small intestine,0.03 %IA/Organ
same,Animal 1 (%IA/Organ): spleen,3.22 %IA/Organ
same,Animal 1 (%IA/Organ): stomach,0.02 %IA/Organ
same,Animal 1 (%IA/Organ): tail,0.69 %IA/Organ
same,Animal 1 (%IA/Organ): urine,0.00 %IA/Organ
same,Animal 1 (%IA/g) g: bladder,0.05 %IA/g
same,Animal 1 (%IA/g) g: blood,0.09 %IA/g
same,Animal 1 (%IA/g) g: bone,1.72 %IA/g
same,Animal 1 (%IA/g) g: brain,0.03 %IA/g
same,Animal 1 (%IA/g) g: feces,0.04 %IA/g
same,Animal 1 (%IA/g) g: heart,0.55 %IA/g
same,Animal 1 (%IA/g) g: kidneys,4.07 %IA/g
same,Animal 1 (%IA/g) g: large intestine,0.12 %IA/g
same,Animal 1 (%IA/g) g: liver,85.85 %IA/g
same,Animal 1 (%IA/g) g: lungs,7.12 %IA/g
same,Animal 1 (%IA/g) g: muscle,0.01 %IA/g
same,Animal 1 (%IA/g) g: pancreas,0.06 %IA/g
same,Animal 1 (%IA/g) g: small intestine,0.14 %IA/g
same,Animal 1 (%IA/g) g: spleen,44.55 %IA/g
same,Animal 1 (%IA/g) g: stomach,0.16 %IA/g
same,Animal 1 (%IA/g) g: tail,1.37 %IA/g
same,Animal 1 (%IA/g) g: urine,0.03 %IA/g
same,Animal 2 (%IA/Organ): bladder,0.00 %IA/Organ
same,Animal 2 (%IA/Organ): blood,0.17 %IA/Organ
same,Animal 2 (%IA/Organ): bone,2.68 %IA/Organ
same,Animal 2 (%IA/Organ): brain,0.01 %IA/Organ
same,Animal 2 (%IA/Organ): feces,0.00 %IA/Organ
same,Animal 2 (%IA/Organ): heart,0.09 %IA/Organ
same,Animal 2 (%IA/Organ): kidneys,0.82 %IA/Organ
same,Animal 2 (%IA/Organ): large intestine,0.01 %IA/Organ
same,Animal 2 (%IA/Organ): liver,133.87 %IA/Organ
same,Animal 2 (%IA/Organ): lungs,0.87 %IA/Organ
same,Animal 2 (%IA/Organ): muscle,0.22 %IA/Organ
same,Animal 2 (%IA/Organ): pancreas,0.01 %IA/Organ
same,Animal 2 (%IA/Organ): small intestine,0.02 %IA/Organ
same,Animal 2 (%IA/Organ): spleen,4.01 %IA/Organ
same,Animal 2 (%IA/Organ): stomach,0.04 %IA/Organ
same,Animal 2 (%IA/Organ): tail,0.56 %IA/Organ
same,Animal 2 (%IA/Organ): urine,0.00 %IA/Organ
same,Animal 2 (%IA/g) g: bladder,0.04 %IA/g
same,Animal 2 (%IA/g) g: blood,0.11 %IA/g
same,Animal 2 (%IA/g) g: bone,1.37 %IA/g
same,Animal 2 (%IA/g) g: brain,0.02 %IA/g
same,Animal 2 (%IA/g) g: feces,0.05 %IA/g
same,Animal 2 (%IA/g) g: heart,0.74 %IA/g
same,Animal 2 (%IA/g) g: kidneys,2.02 %IA/g
same,Animal 2 (%IA/g) g: large intestine,0.05 %IA/g
same,Animal 2 (%IA/g) g: liver,103.98 %IA/g
same,Animal 2 (%IA/g) g: lungs,6.17 %IA/g
same,Animal 2 (%IA/g) g: muscle,0.02 %IA/g
same,Animal 2 (%IA/g) g: pancreas,0.04 %IA/g
same,Animal 2 (%IA/g) g: small intestine,0.07 %IA/g
same,Animal 2 (%IA/g) g: spleen,61.57 %IA/g
same,Animal 2 (%IA/g) g: stomach,0.32 %IA/g
same,Animal 2 (%IA/g) g: tail,1.15 %IA/g
same,Animal 2 (%IA/g) g: urine,0.03 %IA/g
same,Animal 3 (%IA/Organ): bladder,0.00 %IA/Organ
same,Animal 3 (%IA/Organ): blood,0.18 %IA/Organ
same,Animal 3 (%IA/Organ): bone,2.26 %IA/Organ
same,Animal 3 (%IA/Organ): brain,0.01 %IA/Organ
same,Animal 3 (%IA/Organ): feces,0.00 %IA/Organ
same,Animal 3 (%IA/Organ): heart,0.09 %IA/Organ
same,Animal 3 (%IA/Organ): kidneys,1.16 %IA/Organ
same,Animal 3 (%IA/Organ): large intestine,0.02 %IA/Organ
same,Animal 3 (%IA/Organ): liver,131.25 %IA/Organ
same,Animal 3 (%IA/Organ): lungs,1.12 %IA/Organ
same,Animal 3 (%IA/Organ): muscle,0.21 %IA/Organ
same,Animal 3 (%IA/Organ): pancreas,0.01 %IA/Organ
same,Animal 3 (%IA/Organ): small intestine,0.02 %IA/Organ
same,Animal 3 (%IA/Organ): spleen,4.84 %IA/Organ
same,Animal 3 (%IA/Organ): stomach,0.09 %IA/Organ
same,Animal 3 (%IA/Organ): tail,0.27 %IA/Organ
same,Animal 3 (%IA/Organ): urine,0.00 %IA/Organ
same,Animal 3 (%IA/g) g: bladder,0.03 %IA/g
same,Animal 3 (%IA/g) g: blood,0.13 %IA/g
same,Animal 3 (%IA/g) g: bone,1.20 %IA/g
same,Animal 3 (%IA/g) g: brain,0.03 %IA/g
same,Animal 3 (%IA/g) g: feces,0.00 %IA/g
same,Animal 3 (%IA/g) g: heart,0.82 %IA/g
same,Animal 3 (%IA/g) g: kidneys,3.17 %IA/g
same,Animal 3 (%IA/g) g: large intestine,0.10 %IA/g
same,Animal 3 (%IA/g) g: liver,159.50 %IA/g
same,Animal 3 (%IA/g) g: lungs,8.45 %IA/g
same,Animal 3 (%IA/g) g: muscle,0.02 %IA/g
same,Animal 3 (%IA/g) g: pancreas,0.08 %IA/g
same,Animal 3 (%IA/g) g: small intestine,0.09 %IA/g
same,Animal 3 (%IA/g) g: spleen,77.82 %IA/g
same,Animal 3 (%IA/g) g: stomach,0.89 %IA/g
same,Animal 3 (%IA/g) g: tail,0.56 %IA/g
same,Animal 3 (%IA/g) g: urine,0.03 %IA/g
same,Animal 4 (%IA/Organ): bladder,0.00 %IA/Organ
same,Animal 4 (%IA/Organ): blood,0.15 %IA/Organ
same,Animal 4 (%IA/Organ): bone,2.62 %IA/Organ
same,Animal 4 (%IA/Organ): brain,0.01 %IA/Organ
same,Animal 4 (%IA/Organ): feces,0.00 %IA/Organ
same,Animal 4 (%IA/Organ): heart,0.09 %IA/Organ
same,Animal 4 (%IA/Organ): kidneys,1.00 %IA/Organ
same,Animal 4 (%IA/Organ): large intestine,0.01 %IA/Organ
same,Animal 4 (%IA/Organ): liver,107.31 %IA/Organ
same,Animal 4 (%IA/Organ): lungs,0.93 %IA/Organ
same,Animal 4 (%IA/Organ): muscle,0.20 %IA/Organ
same,Animal 4 (%IA/Organ): pancreas,0.01 %IA/Organ
same,Animal 4 (%IA/Organ): small intestine,0.02 %IA/Organ
same,Animal 4 (%IA/Organ): spleen,4.62 %IA/Organ
same,Animal 4 (%IA/Organ): stomach,0.01 %IA/Organ
same,Animal 4 (%IA/Organ): tail,2.67 %IA/Organ
same,Animal 4 (%IA/Organ): urine,0.00 %IA/Organ
same,Animal 4 (%IA/g) g: bladder,0.07 %IA/g
same,Animal 4 (%IA/g) g: blood,0.10 %IA/g
same,Animal 4 (%IA/g) g: bone,1.40 %IA/g
same,Animal 4 (%IA/g) g: brain,0.02 %IA/g
same,Animal 4 (%IA/g) g: feces,0.01 %IA/g
